In ChEMBL document CHEMBL1201862, “PubChem BioAssay data set” (2004):
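Results reflect a 48-hour exposure of cells in 96-well plates to compound at five concentrations. GI50 marks 50% less growth.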 The source made the active and inactive calls. No stated cut-off is given here; in the data, active = GI50 up to about 1.1 µM and inactive = higher.

Assays:
Test in all cases: NCI tumour cell line growth inhibition, 48 h
A549 = system: A549
HCT-15 = system: HCT-15
RXF 393 = system: RXF 393
NCI-H522 = system: NCI-H522
OVCAR-4 = system: OVCAR-4
HOP-92 = system: HOP-92
TK-10 = system: TK-10
Malme-3M = system: Malme-3M
CCRF-CEM = system: CCRF-CEM
U-251 = system: U-251
M14 = system: M14
OVCAR-5 = system: OVCAR-5
A498 = system: A498
K562 = system: K562
SNB-19 = system: SNB-19

Structure (SMILES) | GI50 (A549) | GI50 (HCT-15) | GI50 (RXF 393) | GI50 (NCI-H522) | GI50 (OVCAR-4) | GI50 (HOP-92) | GI50 (TK-10) | GI50 (Malme-3M) | GI50 (CCRF-CEM) | GI50 (U-251) | GI50 (M14) | GI50 (OVCAR-5) | GI50 (A498) | GI50 (K562) | GI50 (SNB-19)
CCCCCCCCCC1CC(=O)OC23CCCC(=O)C12O3 (stereo not drawn) | > 100 µM (inactive) | 84.9 µM | > 100 µM (inactive) | 94.6 µM (inactive) | > 100 µM (inactive) | > 100 µM (inactive) | > 100 µM (inactive) | > 100 µM (inactive) | > 100 µM (inactive) | 97.1 µM (inactive) | > 100 µM (inactive) | > 100 µM (inactive) | 71.9 µM (inactive) | 55.1 µM (inactive) | > 100 µM (inactive)
COc1ccc2c(c1)C1C(CO2)C(c2ccccc2)=NN1c1ccccc1 (stereo not drawn) | > 100 µM (inactive) | – | 35.6 µM (inactive) | > 100 µM (inactive) | – | > 100 µM (inactive) | > 100 µM (inactive) | > 100 µM (inactive) | > 100 µM (inactive) | > 100 µM (inactive) | – | > 100 µM (inactive) | > 100 µM (inactive) | > 100 µM (inactive) | –
O=S(=O)(c1ccccc1)C1CN2OC1(S(=O)(=O)c1ccccc1)CC21CCCCC1 (stereo not drawn) | > 100 µM (inactive) | > 100 µM | 77.1 µM (inactive) | 51.5 µM (inactive) | 37.1 µM (inactive) | – | > 100 µM (inactive) | > 100 µM (inactive) | > 100 µM (inactive) | > 100 µM (inactive) | > 100 µM (inactive) | > 100 µM (inactive) | – | 85.9 µM (inactive) | > 100 µM (inactive)
Nc1ccccc1C(=O)C(Br)C(Br)c1ccc2c(c1)OCO2 (stereo not drawn) | 20.6 µM (inactive) | 20.8 µM | 19.7 µM (inactive) | 18.5 µM (inactive) | 27.4 µM (inactive) | 15 µM (inactive) | 27.4 µM (inactive) | 18.4 µM (inactive) | 26 µM (inactive) | 21.6 µM (inactive) | 18.4 µM (inactive) | – | 24.4 µM (inactive) | 31.1 µM (inactive) | 26.1 µM (inactive)
O=C(Nc1cccc([N+](=O)[O-])c1)/C(=N\NC(=O)c1ccncc1)c1nc2ccc([N+](=O)[O-])cc2nc1O | 39.5 µM (inactive) | 35 µM | 60 µM (inactive) | 8.59 µM (inactive) | > 100 µM (inactive) | 12.4 µM (inactive) | – | > 100 µM (inactive) | 14.7 µM (inactive) | 71.3 µM (inactive) | > 100 µM (inactive) | 77.3 µM (inactive) | > 100 µM (inactive) | 21.5 µM (inactive) | > 100 µM (inactive)
N#CC(C(=O)/C(=N/NC(=O)c1ccccc1O)C(C#N)c1ccc(Cl)cc1)c1ccc(Cl)cc1 (stereo not drawn) | 24.6 µM (inactive) | 15.3 µM | 4.05 µM (inactive) | > 10 µM (inactive) | 18.1 µM (inactive) | – | 17.5 µM (inactive) | 12.4 µM (inactive) | 4.26 µM (inactive) | 10.6 µM (inactive) | 19.2 µM (inactive) | 20 µM (inactive) | 11.9 µM (inactive) | 19.2 µM (inactive) | 15 µM (inactive)
COC(=O)C1CC/C(=N/C2c3ccccc3-c3ccccc32)N1 (stereo not drawn) | > 100 µM (inactive) | > 100 µM | – | 19.6 µM (inactive) | > 100 µM (inactive) | 14.1 µM (inactive) | > 100 µM (inactive) | > 100 µM (inactive) | 58.6 µM (inactive) | > 100 µM (inactive) | > 100 µM (inactive) | > 100 µM (inactive) | > 100 µM (inactive) | > 100 µM (inactive) | > 100 µM (inactive)
Cc1[nH]c(=O)nc(N/N=C/c2ccc(O)cc2)c1C(=O)Nc1ccc(Cl)cc1 | > 100 µM (inactive) | > 100 µM | – | > 100 µM (inactive) | > 100 µM (inactive) | – | > 100 µM (inactive) | > 100 µM (inactive) | > 100 µM (inactive) | > 100 µM (inactive) | 45.5 µM (inactive) | – | > 100 µM (inactive) | > 100 µM (inactive) | > 100 µM (inactive)
N#Cc1ccc2cc3c(cc2c1)OCO3 | – | > 100 µM | 61.5 µM (inactive) | > 100 µM (inactive) | > 100 µM (inactive) | 35.6 µM (inactive) | – | – | > 100 µM (inactive) | 80.2 µM (inactive) | > 100 µM (inactive) | 76.6 µM (inactive) | 28.4 µM (inactive) | 89.5 µM (inactive) | 50.7 µM (inactive)
COc1ccc2c(c1)CCC(OS(=O)(=O)CC13CCC(CC1=O)C3(C)C)C2=O (stereo not drawn) | 26.4 µM (inactive) | 26.7 µM | – | 25.2 µM (inactive) | 43.1 µM (inactive) | 31.8 µM (inactive) | 39.6 µM (inactive) | 43 µM (inactive) | 18.8 µM (inactive) | 21.9 µM (inactive) | 29.5 µM (inactive) | 37.2 µM (inactive) | 14.8 µM (inactive) | 24.3 µM (inactive) | 41.9 µM (inactive)
C/C1=N\[N-]C(=O)c2ccccc2C(=O)N/N=C(\C)c2cccc1n2.O=[N+]([O-])[O-].[Zn+2] | > 100 µM (inactive) | > 100 µM | – | > 100 µM (inactive) | > 100 µM (inactive) | – | > 100 µM (inactive) | > 100 µM (inactive) | > 100 µM (inactive) | > 100 µM (inactive) | > 100 µM (inactive) | > 100 µM (inactive) | > 100 µM (inactive) | > 100 µM (inactive) | > 100 µM (inactive)
COc1cc2c(cc1OC)C(O)[C@H](Br)C(C)(C)O2 (stereo partly drawn) | > 100 µM (inactive) | > 100 µM | > 100 µM (inactive) | > 100 µM (inactive) | > 100 µM (inactive) | > 100 µM (inactive) | > 100 µM (inactive) | > 100 µM (inactive) | > 100 µM (inactive) | > 100 µM (inactive) | > 100 µM (inactive) | > 100 µM (inactive) | – | > 100 µM (inactive) | > 100 µM (inactive)
CCN(CC)CCNc1ccc2nnn3c4ccc(C)cc4c(=O)c1c23 | 5.37 µM (inactive) | 9.62 µM | – | 7.67 µM (inactive) | 12.1 µM (inactive) | 6.55 µM (inactive) | 12.2 µM (inactive) | 12.6 µM (inactive) | 4.16 µM (inactive) | 11.5 µM (inactive) | 12.8 µM (inactive) | 6.71 µM (inactive) | 15.5 µM (inactive) | 8.24 µM (inactive) | 12.7 µM (inactive)
NC(=O)c1cccc([N+](=O)[O-])c1 | > 100 µM (inactive) | > 100 µM | – | > 100 µM (inactive) | – | – | > 100 µM (inactive) | > 100 µM (inactive) | > 100 µM (inactive) | > 100 µM (inactive) | > 100 µM (inactive) | – | > 100 µM (inactive) | > 100 µM (inactive) | > 100 µM (inactive)
Cn1cnnc1Sc1c([N+](=O)[O-])ncn1C | > 100 µM (inactive) | – | – | 12.6 µM (inactive) | > 100 µM (inactive) | 26.5 µM (inactive) | > 100 µM (inactive) | 16.4 µM (inactive) | 29.4 µM (inactive) | > 100 µM (inactive) | > 100 µM (inactive) | > 100 µM (inactive) | > 100 µM (inactive) | 29.2 µM (inactive) | > 100 µM (inactive)
